Data from patent publication US7687453B2, “Method for administering insulin to the buccal region” (Generex Pharmaceuticals Incorporated, priority 1998, dated 2010).

Experiments:
Format in all cases: in vivo, human
[1] = test system: blood glucose; test: Blood glucose after insulin injection vs oral insulin drops, fasted healthy non-diabetic volunteers (Example 1); parameters: unit not given here; details: 10 units sub-cutaneous injection, avg of 5 fasted healthy volunteers
Description: In one set of tests, five healthy non-diabetic human volunteers were tested with insulin, by injection. In another set of tests the volunteers were tested with insulin, taken orally. The volunteers fasted from midnight prior to the test, with no food being taken during the 4 hour study.
On the first day, the volunteers received 10 units of insulin by injection (regular fast acting insulin, available from Eli Lilly). On the second day, the volunteers received 100 units (1 mL volume per drop, approximately 20 drops) of the above-prepared oral insulin (10 times the injection dose). In both tests, blood glucose levels were monitored every 15 minutes by Bayer's Glucometer Elite.

[2] = test system: blood glucose; test: Blood glucose, nasal mixed micellar insulin vs injection (Example 10); details: injection 10 units, avg of ten volunteers
Description: The formulation of Example 9 was tested in a manner similar to that indicated in Example 8 except that the formulation of the present invention was administered nasally.
On the first day, the ten volunteers each received 10 units insulin injection (regular fast acting, Eli Lilly). On the second day, the volunteers received 20 units of the “oral” insulin of Example 9 (2 times the injection dose). The “oral” insulin was administered as drops (0.4 mL volume per drop, approximately 4 large drops in total, i.e. two drops in each nostril).

[3] = test system: meal glucose; test: Meal glucose, oral mixed micellar insulin vs injection, healthy non-diabetic volunteers (Example 11); details: injection 10 units, ten healthy volunteers, meal 30 min after dosing
Description: The mixed micellar formulation of Example 9 was tested in healthy volunteers under controlled conditions to determine the oral insulin effect on meal glucose when compared to injected insulin.
In one set of tests, ten healthy non-diabetic human volunteers were tested with insulin, by injection. In another set of tests the volunteers were tested with insulin, taken orally. The volunteers fasted from midnight prior to the tests, with food being taken 30 minutes after dosing. The meals were standard Sastacal 240 mL liquid diet approved by the Diabetic Society, containing 400 calories.
(§1) On the first day, the volunteers received 10 units insulin by injection (regular fast acting insulin, available from Eli Lilly). On the second day, the volunteers received 30 units of the above-prepared oral insulin (3 times the injection dose). In both tests, blood glucose levels were monitored every 15 minutes by Bayer's Glucometer Elite.

[4] = test system: meal glucose; test: Meal glucose, chewable gum insulin vs injection, Type II diabetic volunteers (Example 13); details: injection 10 units, avg of five Type II diabetics, meal 30 min after dosing
Description: The mixed micellar formulation in chewable stick form was tested in diabetic volunteers under controlled conditions to determine the oral insulin effect on meal glucose when compared to injected insulin.
In one set of tests, five Type II diabetic human volunteers who took insulin, by injection three times a day, were studied. In another set of tests the volunteers were tested with the chewable gum insulin, taken orally. The volunteers fasted from midnight prior to the tests, with food being taken 30 minutes after dosing. The meals were standard Sastacal 240 mL liquid diet approved by the Diabetic Society, containing 400 calories.
On the first day, the volunteers received 10 units insulin by injection (regular fast acting insulin, available from Eli Lilly). On the second day, the volunteers received 30 units of the above-prepared chewable gum oral insulin (3 times the injection dose). in both tests, blood glucose levels were monitored every 15 minutes by Bayer's Glucometer Elite.

[5] = test system: meal glucose; test: Meal glucose, oral mixed micellar insulin vs injection, Type II diabetic volunteers (Example 12); details: injection 10 units, avg of 10 Type II diabetics, meal 30 min after dosing
Description: The mixed micellar formulation of Example 9 was tested in diabetic volunteers under controlled conditions to determine the oral insulin effect on meal glucose when compared to injected insulin.
In one set of tests, ten Type II diabetic human volunteers who took insulin, by injection three times a day, were studied. In another set of tests the volunteers were tested with insulin, taken orally. The volunteers fasted from midnight prior to the tests, with food being taken 30 minutes after dosing. The meals were standard Sastacal 240 mL liquid diet approved by the Diabetic Society, containing 400 calories.
as §1

“regular fast acting insulin: regular fast acting insulin, available from Eli Lilly, given by injection (10 units)” was tested, and the Blood glucose level ([1]; 0 min) was 5.8, the Blood glucose level ([1]; 15 min) was 5.8 and the Blood glucose level ([1]; 30 min) was 5.4. The Blood glucose level ([1]; 60 min) was 5.0, the Blood glucose level ([1]; 75 min) was 4.6 and the Blood glucose level ([1]; 90 min) was 4.3. For the same substance, the Blood glucose level ([1]; 120 min) was 3.8, the Blood glucose level ([1]; 150 min) was 3.6 and the Blood glucose level ([1]; 180 min) was 3.4. It also gave a Blood glucose level ([1]; 210 min) of 4.2, a Blood glucose level ([1]; 240 min) of 4.5 and a Blood glucose levels ([2]; 0 min) of 6.8 mmol/L. For the same substance, the Blood glucose levels ([2]; 15 min) was 7.0 mmol/L, the Blood glucose levels ([2]; 30 min) was 6.8 mmol/L and the Blood glucose levels ([2]; 45 min) was 6.3 mmol/L. The Blood glucose levels ([2]; 60 min) was 6.3 mmol/L, the Blood glucose levels ([2]; 75 min) was 5.8 mmol/L and the Blood glucose levels ([2]; 90 min) was 5.2 mmol/L. For the same substance, the Blood glucose levels ([2]; 105 min) was 5.0 mmol/L, the Blood glucose levels ([2]; 120 min) was 5.2 mmol/L and the Blood glucose levels ([2]; 135 min) was 4.2 mmol/L. For the same substance, the Blood glucose levels ([2]; 150 min) was 4.6 mmol/L, the Blood glucose levels ([2]; 165 min) was 4.0 mmol/L and the Blood glucose levels ([2]; 180 min) was 4.1 mmol/L. It also gave a Blood glucose levels ([2]; 195 min) of 4.3 mmol/L, a Blood glucose levels ([2]; 210 min) of 4.5 mmol/L and a Blood glucose levels ([2]; 225 min) of 4.7 mmol/L. For the same substance, the Blood glucose levels ([2]; 240 min) was 5.0 mmol/L, the Blood glucose levels ([3]; 0 min) was 5.5 mmol/L and the Blood glucose levels ([3]; 15 min) was 5.6 mmol/L. For the same substance, the Blood glucose levels ([3]; 30 min) was 5.4 mmol/L, the Blood glucose levels ([3]; 45 min) was 5.4 mmol/L and the Blood glucose levels ([3]; 60 min) was 5.6 mmol/L. For the same substance, the Blood glucose levels ([3]; 75 min) was 6.6 mmol/L, the Blood glucose levels ([3]; 90 min) was 7.0 mmol/L and the Blood glucose levels ([3]; 105 min) was 5.9 mmol/L. It also gave a Blood glucose levels ([3]; 120 min) of 5.6 mmol/L, a Blood glucose levels ([3]; 135 min) of 5.1 mmol/L and a Blood glucose levels ([3]; 150 min) of 4.8 mmol/L. It also gave a Blood glucose levels ([3]; 165 min) of 4.6 mmol/L, a Blood glucose levels ([3]; 180 min) of 4.3 mmol/L and a Blood glucose levels ([4]; 0 min) of 8.8 mmol/L. For the same substance, the Blood glucose levels ([4]; 15 min) was 8.2 mmol/L, the Blood glucose levels ([4]; 30 min) was 8.0 mmol/L and the Blood glucose levels ([4]; 45 min) was 8.4 mmol/L. The Blood glucose levels ([4]; 60 min) was 9.2 mmol/L, the Blood glucose levels ([4]; 75 min) was 10.3 mmol/L and the Blood glucose levels ([4]; 90 min) was 11.8 mmol/L. For the same substance, the Blood glucose levels ([4]; 105 min) was 11.6 mmol/L, the Blood glucose levels ([4]; 120 min) was 11.0 mmol/L and the Blood glucose levels ([4]; 135 min) was 10.2 mmol/L. It also gave a Blood glucose levels ([4]; 150 min) of 9.6 mmol/L, a Blood glucose levels ([4]; 165 min) of 9.5 mmol/L and a Blood glucose levels ([4]; 180 min) of 9.1 mmol/L. The Blood glucose levels ([4]; 195 min) was 8.7 mmol/L, the Blood glucose levels ([4]; 210 min) was 8.2 mmol/L and the Blood glucose levels ([4]; 225 min) was 8.0 mmol/L. It also gave a Blood glucose levels ([4]; 240 min) of 7.5 mmol/L, a Blood glucose levels ([5]; 0 min) of 8.7 mmol/L and a Blood glucose levels ([5]; 15 min) of 8.8 mmol/L. The Blood glucose levels ([5]; 30 min) was 8.9 mmol/L, the Blood glucose levels ([5]; 45 min) was 10.1 mmol/L and the Blood glucose levels ([5]; 60 min) was 11.8 mmol/L. The Blood glucose levels ([5]; 75 min) was 11.8 mmol/L, the Blood glucose levels ([5]; 90 min) was 12.2 mmol/L and the Blood glucose levels ([5]; 105 min) was 11.2 mmol/L. It also gave a Blood glucose levels ([5]; 120 min) of 10.4 mmol/L, a Blood glucose levels ([5]; 135 min) of 8.4 mmol/L and a Blood glucose levels ([5]; 150 min) of 7.3 mmol/L. For the same substance, the Blood glucose levels ([5]; 165 min) was 6.5 mmol/L and the Blood glucose levels ([5]; 180 min) was 4.3 mmol/L.
